Experimental data taken from article PMC7351026, “Serum Half-Lives for Short- and Long-Chain Perfluoroalkyl Acids after Ceasing Exposure from Drinking Water Contaminated by Firefighting Foam” (Environmental Health Perspectives, 2020).
Several values for one entry are separate records, joined by “and”; a condition that tells them apart may be missing. Equal values may be shown once.

What was measured:
[1] = PFAS levels in serum samples of airport employees (LC/MS/MS)
In short: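 Serum from airport employees, drawn after contaminated drinking-water exposure ended, up to five monthly rounds, all reanalyzed in one batch. 25 μL serum precipitated with acetonitrile/methanol plus labeled internal standards; LC/MS/MS on BEH C18 with ammonium acetate/methanol gradient, calibrants prepared in FBS.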

[2] = PFAS levels in urine samples of airport employees, specific-gravity adjusted (LC/MS/MS); type: in vivo, human
Description: Only one employee provided a single urine sample. […] All employees provided written informed consent.
The samples were thawed 1–2 h, then mixed by vortex shaker and manual turning. […] For the urine samples, 50μL urine was mixed with 25μL of methanol and 25μL of a 50% acetonitrile solution containing isotopically labeled internal standards (see Table S1). Then samples were shaken vigorously for 30 min and centrifuged at 3,000×g for 10 min at room temperature.
Aliquots of 20μL of the sample were analyzed using LC/MS/MS. […] The analysis was performed in negative ion mode. The ion source temperature was at 350°C.
Urinary PFAS concentrations were specific-gravity adjusted. The ratio of urine and serum concentration for each PFAS (urine/serum ratio) at each sampling was calculated based on PFAS concentrations in paired serum and urine samples from 17 employees. Then the personal average urine/serum ratio was calculated using the mean value of repeated samplings for each employee.

[3] = Serum/water ratio; type: in vivo, human; conditions: median serum level of first samples (26 employees) divided by airport drinking-water level
Description: The ratio of serum and water concentration for each PFAS (serum/water ratio) was calculated based on median serum level in the first serum sample obtained from all 26 airport employees divided by the drinking-water concentration. This ratio is an indicator of PFAS accumulation in body.

[4] = 1st sampling (September 2018), count 17
[5] = 2nd sampling (October 2018), count 17
[6] = 3rd sampling (November, 2018), count 17
[7] = 4th sampling (December 2018), count 16
[8] = 5th sampling (January 2019), count 16
[9] = first serum samples, all 26 airport employees
[10] = median of first serum samples, all 26 airport employees
[11] = second to fifth samplings, 17 airport employees
[12] = 3rd sampling (November, 2018), count 16
[13] = 4th sampling (December 2018), count 14
[14] = 5th sampling (January 2019), count 12

O=S(=O)(O)C(F)(F)C(F)(F)C(F)(F)C(F)(F)C(F)(F)C(F)(F)F [PFHxS, perfluorohexane sulfonic acid]
Serum PFAS level, 25 percentile [1, 4]: 63 | Serum PFAS level, 75 percentile [1, 4]: 155 | Serum PFAS level, Max [1, 4]: 402 | Serum PFAS level, Median [1, 4]: 133 | Serum PFAS level, Min [1, 4]: 21 | Serum PFAS level, 25 percentile [1, 5]: 57 | Serum PFAS level, 75 percentile [1, 5]: 144 | Serum PFAS level, Max [1, 5]: 363 | Serum PFAS level, Median [1, 5]: 122 | Serum PFAS level, Min [1, 5]: 18 | Serum PFAS level, 25 percentile [1, 6]: 57 | Serum PFAS level, 75 percentile [1, 6]: 150 | Serum PFAS level, Max [1, 6]: 392 | Serum PFAS level, Median [1, 6]: 119 | Serum PFAS level, Min [1, 6]: 20 | Serum PFAS level, 25 percentile [1, 7]: 50 | Serum PFAS level, 75 percentile [1, 7]: 146 | Serum PFAS level, Max [1, 7]: 381 | Serum PFAS level, Median [1, 7]: 109 | Serum PFAS level, Min [1, 7]: 17 | Serum PFAS level, 25 percentile [1, 8]: 64 | Serum PFAS level, 75 percentile [1, 8]: 153 | Serum PFAS level, Max [1, 8]: 399 | Serum PFAS level, Median [1, 8]: 117 | Serum PFAS level, Min [1, 8]: 42 | Serum level in the first samples, median (range) ([1]; all 26 airport employees): 76 (17–402) ng/mL | PFAS in first serum sample, median (range) ([1]; employees participated in first blood sampling and repeated blood and urine sampling, N=17): 133 (21–402) ng/mL | PFAS in first serum sample, median (range) ([1]; employees participated in first blood sampling only, N=9, 11-14 d after end of exposure): 60 (17–85) ng/mL | Initial serum PFAS level, max ([1]; females (N=7)): 183 ng/mL | Initial serum PFAS level, median ([1]; females (N=7)): 74 ng/mL | Initial serum PFAS level, min ([1]; females (N=7)): 21 ng/mL | Relative composition of PFAS in serum, molar concentration basis [1, 9]: 70.4% and 70% | Relative composition of PFAS in serum, weight basis [1, 9]: 68.9% | Initial serum PFAS level, Max ([1]; males (N=19)): 402 ng/mL | Initial serum PFAS level, Min ([1]; males (N=19)): 17 ng/mL | Initial serum PFAS level, median ([1]; males (N=19)): 78 ng/mL | Serum concentration, molar basis [1, 10]: 0.19 | Serum concentration, weight basis [1, 10]: 76 | Serum level, median (range) [1, 11]: 118 (17–399) ng/mL | Specific gravity adjusted urinary level, 25 percentile [2, 5]: 0.06 ng/mL | Specific gravity adjusted urinary level, 75 percentile [2, 5]: 0.13 ng/mL | Specific gravity adjusted urinary level, Max [2, 5]: 0.28 ng/mL | Specific gravity adjusted urinary level, Median [2, 5]: 0.09 ng/mL | Specific gravity adjusted urinary level, Min [2, 5]: 0.03 ng/mL | Specific gravity adjusted urinary level, 25 percentile [2, 12]: 0.05 ng/mL | Specific gravity adjusted urinary level, 75 percentile [2, 12]: 0.13 ng/mL | Specific gravity adjusted urinary level, Max [2, 12]: 0.26 ng/mL | Specific gravity adjusted urinary level, Median [2, 12]: 0.07 ng/mL | Specific gravity adjusted urinary level, Min [2, 12]: 0.03 ng/mL | Specific gravity adjusted urinary level, 25 percentile [2, 13]: 0.05 ng/mL | Specific gravity adjusted urinary level, 75 percentile [2, 13]: 0.17 ng/mL | Specific gravity adjusted urinary level, Max [2, 13]: 0.73 ng/mL | Specific gravity adjusted urinary level, Median [2, 13]: 0.12 ng/mL | Specific gravity adjusted urinary level, Min [2, 13]: 0.04 ng/mL | Specific gravity adjusted urinary level, 25 percentile [2, 14]: 0.07 ng/mL | Specific gravity adjusted urinary level, 75 percentile [2, 14]: 0.11 ng/mL | Specific gravity adjusted urinary level, Max [2, 14]: 0.31 ng/mL | Specific gravity adjusted urinary level, Median [2, 14]: 0.08 ng/mL | Specific gravity adjusted urinary level, Min [2, 14]: 0.06 ng/mL | Specific gravity adjusted urine level, median (range) [2, 11]: 0.092 (0.025–0.73) ng/mL | Serum/water ratio [3]: 107
